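Protocol summary: plate cells (96-well), add compound at 5 concentrations, incubate 48 h, interpolate endpoints linearly. Here, GI50 denotes the concentration required for 50% inhibition of growth. TGI: concentration producing complete growth inhibition.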
Legend:
Test in all cases: NCI anticancer screen, dose series, 48 h
[1] = system: NCI-H226 lung
[2] = system: NCI-H23 lung
[3] = system: NCI-H460 lung
[4] = system: NCI-H522 lung
[5] = system: OVCAR-3 ovarian
[6] = system: OVCAR-4 ovarian
[7] = system: OVCAR-5 ovarian
[8] = system: OVCAR-8 ovarian
[9] = system: PC-3 prostate
[10] = system: RPMI-8226 leukemia
[11] = system: RXF 393 renal
[12] = system: SF-268 CNS
[13] = system: SF-295 CNS
[14] = system: SF-539 CNS
[15] = system: SK-MEL-2 melanoma
[16] = system: SK-MEL-28 melanoma
[17] = system: SK-MEL-5 melanoma
[18] = system: SK-OV-3 ovarian
[19] = system: SN12C renal
[20] = system: SNB-19 CNS
[21] = system: SNB-75 CNS
[22] = system: SR leukemia
[23] = system: SW-620 colon
[24] = system: T-47D breast
[25] = system: TK-10 renal
[26] = system: U251 CNS
[27] = system: UACC-257 melanoma
[28] = system: UACC-62 melanoma
[29] = system: UO-31 renal

COc1ccc([C@H]2C(C(=O)c3ccc(Cl)cc3)C3(N[C@@H]2c2ccccc2)C(=O)Nc2ccc(Br)cc23)cc1 (stereo partly drawn)
GI50 [1]: 8.47 µM | TGI [1]: 16.4 µM | GI50 [2]: 10.2 µM | TGI [2]: 20.8 µM | GI50 [3]: 10.1 µM | TGI [3]: 20.9 µM | GI50 [4]: 8.97 µM | TGI [4]: 20.8 µM | GI50 [5]: 10.5 µM | TGI [5]: 23.3 µM | GI50 [6]: 13 µM | TGI [6]: 42.4 µM | GI50 [7]: 9.8 µM | TGI [7]: 19.1 µM | GI50 [8]: 9.68 µM | TGI [8]: 20.4 µM | GI50 [9]: 12.2 µM | TGI [9]: 31.5 µM | GI50 [10]: 14.3 µM | TGI [10]: 41 µM | GI50 [11]: 7.29 µM | TGI [11]: 16.2 µM | GI50 [12]: 14.4 µM | TGI [12]: 49.7 µM | GI50 [13]: 9.65 µM | TGI [13]: 20.2 µM | GI50 [14]: 9.47 µM | TGI [14]: 19.4 µM | GI50 [15]: 8.37 µM | TGI [15]: 16 µM | GI50 [16]: 8.83 µM | TGI [16]: 16.8 µM | GI50 [17]: 8.65 µM | TGI [17]: 16.5 µM | GI50 [18]: 12.3 µM | TGI [18]: 36.8 µM | GI50 [19]: 8.53 µM | TGI [19]: 16 µM | GI50 [20]: 15.1 µM | TGI [20]: > 53.3 µM | GI50 [21]: 8.73 µM | TGI [21]: 35.4 µM | GI50 [22]: 12.8 µM | TGI [22]: 35.8 µM | GI50 [23]: 13.9 µM | TGI [23]: 44.8 µM | GI50 [24]: 11.5 µM | TGI [24]: 33.4 µM | GI50 [25]: 10.8 µM | TGI [25]: 28.7 µM | GI50 [26]: 9.18 µM | TGI [26]: 18 µM | GI50 [27]: 10.5 µM | TGI [27]: 27.9 µM | GI50 [28]: 8.75 µM | TGI [28]: 16.7 µM | GI50 [29]: 10.7 µM | TGI [29]: 29.3 µM

From PubChem BioAssay (NCI)
